Data reported in patent US20050010368A1, “Method for the prediction of binding targets and the design of ligands” (priority 1997, published 2005).
Read-outs that look alike come from different tables or passages of the source.

Key:
[1] = molecular target: T1, V82A mutant HIV-1 protease (Human immunodeficiency virus type 1 group M subtype B, UniProt P04585, V570A); settings: V82A mutant vs wild type; Baldwin et al., 1995; cited from earlier work
T1 construct: the complex of A77003 with the V82A mutant HIV-1 protease

HIV-1 protease = HIV-1 protease (Human immunodeficiency virus type 1 group M subtype B, UniProt P04585); experiment: Structure-based thermodynamic calculation of inhibitor binding to HIV-1 protease
Experimental: In all cases presented here the Gibbs energy of binding, ΔG, was calculated from the published crystallographic structures using procedures previously described (D'Aquino et al., 1996; Gomez et al., 1995(a); Gomez et al., 1995(b); Hilser et al., 1996(b); Luque et al., 1996). These calculations require the structures of the complex as well as the structures of the unligated protein and unligated inhibitor. In this approach, the generic portion of the Gibbs energy, ΔGgen, is calculated from a separate computation of its enthalpy and entropy components. […]
The most significant structural/solvation contributions to the total free energy of binding are contained in the term […] which is calculated by estimating separately its enthalpy and entropy components. […]
The changes in accessible surface areas were calculated by implementing the Lee and Richards algorithm (Lee et al., 1971). […]
In binding or folding, the bulk of the enthalpy change originates from the formation of internal interactions (van der Waals, hydrogen bonds, etc.) and the parallel desolvation of the interacting groups. […] For example, it has been shown that for binding processes in which protons are either released or absorbed the measured enthalpy depends on the ionization enthalpy of the buffer (Gomez et al., 1995(b)). […]

endothiapepsin [2] = molecular target: T2, endothiapepsin (Cryphonectria parasitica, UniProt P11838); settings: reference cited, cited from earlier work
endothiapepsin [3] = molecular target: T2, endothiapepsin; assay type: biochemical
Description: The ΔΔG values are relative to the wild type. […] To test the structure-based thermodynamic prediction, the A5F mutant of pepstatin A was synthesized and the overall inhibition constant determined experimentally.

endothiapepsin [4] = molecular target: T2, endothiapepsin
Description: The second mutation considered in this study involved the addition of an amino acid at the carboxy terminus of the peptide.

endothiapepsin [5] = molecular target: T2, endothiapepsin; settings: relative to wild type pepstatin A
Description: In all cases, the coordinate sets for the complexes between the protein and the mutated peptides are generated by using the coordinates of the wild type complex as a template. Replacement mutants are created by replacing the original side chain with the desired mutation, leaving the backbone in the original conformation. For mutations that involve the addition of an extra amino acid at either end of the peptide chain, the backbone torsional angles are also included in the minimization.
The inhibitor contains two residues of the unusual amino acid statine (Sta: 4(S)-amino-3(S)-hydroxy-6methylheptanoic acid). […] Two different mutations of pepstatin A were studied. […] Twelve possible mutations at this position were considered (Cys, Gly, His, Ile, Leu, Met, Phe, Ser, Thr, Trp, Tyr, Val). For each of these mutations, the most probable conformation was identified. In the second case, the addition of an amino acid at the carboxy terminus of pepstatin A was considered. In this case, a simultaneous optimization of side chain and backbone conformations was performed in order to identify the most probable conformation.

T2 sequence (P11838 90-419): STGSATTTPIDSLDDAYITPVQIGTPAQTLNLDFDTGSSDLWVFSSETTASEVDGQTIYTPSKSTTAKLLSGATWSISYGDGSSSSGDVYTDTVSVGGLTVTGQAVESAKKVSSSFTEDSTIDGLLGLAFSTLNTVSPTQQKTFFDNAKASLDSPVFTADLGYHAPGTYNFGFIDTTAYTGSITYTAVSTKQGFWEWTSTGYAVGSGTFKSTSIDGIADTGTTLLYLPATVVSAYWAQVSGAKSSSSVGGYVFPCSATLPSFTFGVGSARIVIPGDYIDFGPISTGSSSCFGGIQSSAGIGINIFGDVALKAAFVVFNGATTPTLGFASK

For CC(C)[C@H](NC(=O)N(C)Cc1ccccn1)C(=O)N[C@@H](Cc1ccccc1)[C@H](O)[C@H](O)[C@H](Cc1ccccc1)NC(=O)[C@@H](NC(=O)N(C)Cc1ccccn1)C(C)C [A77003], the “reduction in binding affinity measured experimentally” value [1] is given as 4 fold.
CC(C)CN(C[C@@H](O)[C@H](Cc1ccccc1)NC(=O)O[C@H]1CCOC1)S(=O)(=O)c1ccc(N)cc1 [VX478] gave a ΔΔG (HIV-1 protease) of -0.563 kcal/mol.
For Iva-Val-Val-Sta-Ala-Sta [Pepstatin A], the ΔH of binding (endothiapepsin [2]; measured under the same conditions (16° C.)) is listed as -4.1 kcal/mol, the ΔCp of binding (endothiapepsin [2]; measured under the same conditions) is listed as −310 cal/K•mol and the “ΔG(25)exp” value (endothiapepsin [3]; experimental binding Gibbs energy at 25° C.) is listed as -12.7 kcal/mol.
In the case of Iva-Val-Val-Sta-Ala-Sta-Glu, the “enthalpy change (ΔH) of binding” value (endothiapepsin [4]; 16° C., calorimetric) is reported as -4.6 ± 0.1 kcal/mol, the “heat capacity change (ΔCp)” value (endothiapepsin [4]; from temperature dependence of the binding enthalpy change) is reported as −260±20 cal/K•mol and the “binding affinity relative to wild type pepstatin A” value (endothiapepsin [3]) is reported as “lower affinity”. For the same compound, the “ΔG(25)exp” value (endothiapepsin [3]) was -11.3 kcal/mol.
For Iva-Val-Val-Sta-Phe-Sta, the “binding affinity relative to wild type pepstatin A” value (endothiapepsin [3]) was “higher affinity”, the “deviation of ΔG from its predicted value” (endothiapepsin [3]) was 0.2 kcal/mol and the “ΔG(25)exp” value (endothiapepsin [3]) was -13.3 kcal/mol. For the same compound, the “Gibbs energy of binding more favorable than the wild type” value (endothiapepsin [5]) was “about 1 kcal/mol”.
